Source: article PMC6222614, “Disubstituted 4-Chloro-3-nitrophenylthiourea Derivatives: Antimicrobial and Cytotoxic Studies” (Molecules : A Journal of Synthetic Chemistry and Natural …, 2018)
In brackets after ≈: the same amount, converted by molar mass. Where two headings read alike, the source gives them in different places.

Key:
[1] = system: B. cereus ATCC 11778; test: MIC, twofold serial microdilution; type: cell-based; conditions: Bacillus cereus, ATCC11778; standard strain, 18 h, 35 °C
Experimental: (§1) The antimicrobial activity of the compounds was tested on Gram-positive bacteria (Staphylococcus aureus NCTC 4163, Staphylococcus aureus ATCC 25923, Staphylococcus aureus ATCC 6538, Staphylococcus aureus ATCC 29213, Staphylococcus epidermidis ATCC 12228, Staphylococcus epidermidis ATCC 35984, Enterococcus faecalis ATCC 29212, Bacillus subtilis ATCC 6633, Bacillus cereus ATCC 11778, Micrococcus luteus ATCC 9341, Micrococcus luteus ATCC 10240); Gram-negative rods (Escherichia coli ATCC 10538, Escherichia coli ATCC 25922, Escherichia coli NCTC 8196, Proteus vulgaris NCTC 4635, Pseudomonas aeruginosa ATCC 15442, Pseudomonas aeruginosa NCTC 6749, Pseudomonas aeruginosa ATCC 27863, Bordetella bronchiseptica ATCC 4617) and yeasts (Candida albicans ATCC 10231, Candida albicans ATCC 90028, Candida parapsilosis ATCC 22019). Other microorganisms used were obtained from the collection of the Department of Pharmaceutical Microbiology, Medical University of Warsaw, Poland.
(§2) Antibacterial activity was examined by the disc-diffusion method under standard conditions using Mueller-Hinton II agar medium (Becton Dickinson) according to CLSI (previously NCCLS) guidelines. Antifungal activities were assessed using Mueller-Hinton agar + 2% glucose and 0.5 µg/mL Methylene Blue Dye Medium. Sterile filter paper discs (9 mm diameter, Whatman No 3 chromatography paper) were dripped with tested compound solutions (in DMSO) to load 400 μg of a given compound per disc. Dry discs were placed on the surface of appropriate agar medium. The results (diameter of the growth inhibition zone) were read after 18 h of incubation at 35 °C. Minimal Inhibitory Concentration (MIC) was tested by the twofold serial microdilution method (in 96-well microtiter plates) using Mueller-Hinton Broth medium (Beckton Dickinson) for bacteria or RPMI-1640 medium for Candida species according to CLSI guidelines. The stock solution of tested agent was prepared in DMSO and diluted in sterile water. Concentrations of tested agents ranged from 0.125 to 512 µg/mL. The final inoculum of all studied microorganisms was 10^5 CFU/ mL^−1 (colony forming units per mL). Minimal inhibitory concentrations (the lowest concentration of a tested agent that prevents visible growth of a microorganism) were read after 18 h (bacteria) or 24 h (yeasts) of incubation at 35 °C.

[2] = system: B. subtilis ATCC 6633; test: MIC, twofold serial microdilution; type: cell-based; conditions: Bacillus subtilis, ATCC6633; standard strain, 18 h, 35 °C
Experimental: as §1, §2

[3] = system: E. faecalis ATCC 29212; test: MIC, twofold serial microdilution; type: cell-based; conditions: Enterococcus faecalis, ATCC29212; standard strain, 18 h, 35 °C
Experimental: as §1, §2

[4] = system: M. luteus ATCC 10240; test: MIC, twofold serial microdilution; type: cell-based; conditions: Micrococcus luteus, ATCC10240; standard strain, 18 h, 35 °C
Experimental: as §1, §2

[5] = system: M. luteus ATCC 9341; test: MIC, twofold serial microdilution; type: cell-based; conditions: Micrococcus luteus, ATCC9341; standard strain, 18 h, 35 °C
Experimental: as §1, §2

[6] = system: S. aureus ATCC 25923; test: MIC, twofold serial microdilution; type: cell-based; conditions: Staphylococcus aureus, ATCC25923; standard strain, 18 h, 35 °C
Experimental: as §1, §2

[7] = system: S. aureus ATCC 29213; test: MIC, twofold serial microdilution; type: cell-based; conditions: Staphylococcus aureus, ATCC29213; standard strain, 18 h, 35 °C
Experimental: as §1, §2

[8] = system: S. aureus ATCC 6538; test: MIC, twofold serial microdilution; type: cell-based; conditions: Staphylococcus aureus, ATCC6538; standard strain, 18 h, 35 °C
Experimental: as §1, §2

[9] = system: S. aureus NCTC 4163; test: MIC, twofold serial microdilution; type: cell-based; conditions: Staphylococcus aureus, NCTC4163; standard strain, 18 h, 35 °C
Experimental: as §1, §2

[10] = system: S. epidermidis ATCC 12228; test: MIC, twofold serial microdilution; type: cell-based; conditions: Staphylococcus epidermidis, ATCC12228; standard strain, 18 h, 35 °C
Experimental: as §1, §2

[11] = system: S. epidermidis ATCC 35984; test: MIC, twofold serial microdilution; type: cell-based; conditions: Staphylococcus epidermidis, ATCC35984; standard strain, 18 h, 35 °C
Experimental: as §1, §2

[12] = system: S. epidermidis MRSE 403/11; test: MIC, hospital methicillin-resistant strain; type: cell-based; conditions: Staphylococcus epidermidis
Experimental: as §1, §2

[13] = system: S. epidermidis MRSE 404/11; test: MIC, hospital methicillin-resistant strain; type: cell-based; conditions: Staphylococcus epidermidis
Experimental: as §1, §2

[14] = system: S. epidermidis MRSE 405/11; test: MIC, hospital methicillin-resistant strain; type: cell-based; conditions: Staphylococcus epidermidis
Experimental: as §1, §2

[15] = system: S. epidermidis MRSE 406/11; test: MIC, hospital methicillin-resistant strain; type: cell-based; conditions: Staphylococcus epidermidis
Experimental: as §1, §2

[16] = system: S. epidermidis MRSE 407/11; test: MIC, hospital methicillin-resistant strain; type: cell-based; conditions: Staphylococcus epidermidis
Experimental: as §1, §2

[17] = system: S. epidermidis MRSE 409/11; test: MIC, hospital methicillin-resistant strain; type: cell-based; conditions: Staphylococcus epidermidis
Experimental: as §1, §2

[18] = system: S. epidermidis MRSE 411/11; test: MIC, hospital methicillin-resistant strain; type: cell-based; conditions: Staphylococcus epidermidis
Experimental: as §1, §2

[19] = system: S. epidermidis MRSE 412/11; test: MIC, hospital methicillin-resistant strain; type: cell-based; conditions: Staphylococcus epidermidis
Experimental: as §1, §2

[20] = system: S. epidermidis MRSE 413/11; test: MIC, hospital methicillin-resistant strain; type: cell-based; conditions: Staphylococcus epidermidis
Experimental: as §1, §2

[21] = system: S. epidermidis MRSE 422/11; test: MIC, hospital methicillin-resistant strain; type: cell-based; conditions: Staphylococcus epidermidis
Experimental: as §1, §2

[22] = Cytotoxicity against mock-infected MT-4 cells (MTT); type: cell-based, human; conditions: human, concentration reducing viability of mock-infected MT-4 cells by 50%
Experimental: (§3) Cell line supporting the multiplication of Human Immunodeficiency Virus type-1 (HIV-1) was the CD4+ human T-cells, derived from human hematological tumors, containing an integrated HTLV-1 genome (MT-4). Cells were purchased from American Type Culture Collection (ATCC). Human Immunodeficiency Virus type-1 (HIV-1) IIIB laboratory strain was obtained from the supernatant of the persistently infected H9/IIIB cells (NIH 1983).
Exponentially growing MT-4 cells were seeded at an initial density of 1 × 10^5 cells/mL in 96-well plates in RPMI-1640 medium, supplemented with 10% fetal bovine serum (FBS), 100 units/mL penicillin G and 100 μg/mL streptomycin. Cell cultures were then incubated at 37 °C in a humidified, 5% CO2 atmosphere, in the absence or presence of serial dilutions of tested compounds. Cell viability was determined after 96 h at 37 °C by the 3-(4,5-dimethylthiazol-2-yl)-2,5-diphenyl-tetrazolium bromide (MTT) method.

[23] = system: HIV-1 IIIB; test: Anti-HIV-1 activity: protection of MT-4 cells from virus-induced cytopathogenicity (MTT); type: cell-based, Human Immunodeficiency Virus type-1; conditions: Human immunodeficiency virus 1, IIIB, MT4, 96 h, read-out: HIV-1IIIB EC50
Text: as §3
The activity of compounds against HIV-1 was based on inhibition of virus-induced cytopathogenicity in MT-4 cell acutely infected with a multiplicity of infection (m.o.i.) of 0.01. Briefly, 50 μL of RPMI containing 1 × 10^4 MT-4 cells were added to each well of flat-bottom microtiter trays, containing 50 μL of RPMI without or with serial dilutions of test compounds. Then, 20 μL of a HIV-1 suspension containing 100 CCID50 were added. After a 4-day incubation at 37 °C, cell viability was determined by the MTT method.

[24] = system: staphylococci; test: MIC against staphylococci; type: cell-based; conditions: moderate activity
Experimental: as §1, §2

| MIC [1] | MIC [2] | MIC [4] | MIC [5] | MIC [6] | MIC [7] | MIC [8] | MIC [9] | MIC [10] | MIC [11] | MIC [12] | MIC [13] | MIC [14] | MIC [15] | MIC [16] | MIC [17] | MIC [18] | MIC [19] | MIC [20] | MIC [21] | Structure (SMILES) | also measured |
| --- | --- | --- | --- | --- | --- | --- | --- | --- | --- | --- | --- | --- | --- | --- | --- | --- | --- | --- | --- | --- | --- |
| 0.25 µg/mL (≈ 0.754 µM) | < 0.12 µg/mL | 2 µg/mL (≈ 6.04 µM) | 1 µg/mL (≈ 3.02 µM) | 0.5 µg/mL (≈ 1.51 µM) | 0.5 µg/mL (≈ 1.51 µM) | 0.25 µg/mL (≈ 0.754 µM) | 0.25 µg/mL (≈ 0.754 µM) | 0.25 µg/mL (≈ 0.754 µM) | 0.25 µg/mL (≈ 0.754 µM) | 16 µg/mL (≈ 48.3 µM) | 64 µg/mL (≈ 193 µM) | 4 µg/mL (≈ 12.1 µM) | 0.5 µg/mL (≈ 1.51 µM) | 64 µg/mL (≈ 193 µM) | 2 µg/mL (≈ 6.04 µM) | 4 µg/mL (≈ 12.1 µM) | 64 µg/mL (≈ 193 µM) | 32 µg/mL (≈ 96.6 µM) | 4 µg/mL (≈ 12.1 µM) | O=C(O)c1cn(C2CC2)c2cc(N3CCNCC3)c(F)cc2c1=O [Ciprofloxacin, reference compound] | MIC [3]: 1 µg/mL (≈ 3.02 µM) |
| 8 µg/mL (≈ 26 µM) | 8 µg/mL (≈ 26 µM) | 8 µg/mL (≈ 26 µM) | 4 µg/mL (≈ 13 µM) | 16 µg/mL (≈ 52 µM) | 16 µg/mL (≈ 52 µM) | 16 µg/mL (≈ 52 µM) | 16 µg/mL (≈ 52 µM) | 16 µg/mL (≈ 52 µM) | 16 µg/mL (≈ 52 µM) | 16 µg/mL (≈ 52 µM) | 16 µg/mL (≈ 52 µM) | 16 µg/mL (≈ 52 µM) | 16 µg/mL (≈ 52 µM) | 16 µg/mL (≈ 52 µM) | 16 µg/mL (≈ 52 µM) | 16 µg/mL (≈ 52 µM) | 32 µg/mL (≈ 104 µM) | 16 µg/mL (≈ 52 µM) | 16 µg/mL (≈ 52 µM) | O=[N+]([O-])c1cc(NC(=S)Nc2ccccc2)ccc1Cl [Compound 23, 1-(4-chloro-3-nitrophenyl)-3-phenylthiourea] | CC50 at 96 h [22]: 23 µM; EC50 ([23]; 50% protection of MT-4 cells from HIV-1 induced cytopathogenicity, MTT, 4-day incubation): > 23 µM; MIC [3]: 16 µg/mL (≈ 52 µM); MIC range towards staphylococci [24]: 8 to 16 µg/mL; melting point: 163 to 165 °C |

| Structure (SMILES) | MIC [1] | MIC [2] | MIC [4] | MIC [5] | MIC [6] | MIC [7] | MIC [8] | MIC [9] | MIC [10] | MIC [11] | MIC [12] | MIC [13] | MIC [14] | MIC [15] | MIC [16] | MIC [17] | MIC [18] | MIC [19] | MIC [20] | MIC [21] | also measured |
| --- | --- | --- | --- | --- | --- | --- | --- | --- | --- | --- | --- | --- | --- | --- | --- | --- | --- | --- | --- | --- | --- |
| O=[N+]([O-])c1cc(NC(=S)NC2CC3CCC2C3)ccc1Cl (stereo not shown) [Compound 24, 1-bicyclo[2.2.1]hept-2-yl-3-(4-chloro-3-nitrophenyl)thiourea] | 8 µg/mL (≈ 24.6 µM) | 8 µg/mL (≈ 24.6 µM) | 16 µg/mL (≈ 49.1 µM) | 32 µg/mL (≈ 98.2 µM) | 8 µg/mL (≈ 24.6 µM) | 8 µg/mL (≈ 24.6 µM) | 8 µg/mL (≈ 24.6 µM) | 8 µg/mL (≈ 24.6 µM) | 16 µg/mL (≈ 49.1 µM) | 16 µg/mL (≈ 49.1 µM) | 4 µg/mL (≈ 12.3 µM) | 4 µg/mL (≈ 12.3 µM) | 4 µg/mL (≈ 12.3 µM) | 8 µg/mL (≈ 24.6 µM) | 4 µg/mL (≈ 12.3 µM) | 4 µg/mL (≈ 12.3 µM) | 4 µg/mL (≈ 12.3 µM) | 4 µg/mL (≈ 12.3 µM) | 4 µg/mL (≈ 12.3 µM) | 4 µg/mL (≈ 12.3 µM) | CC50 at 96 h [22]: 16 µM; EC50 [23]: > 16 µM; MIC range towards staphylococci [24]: 8 to 16 µg/mL; melting point: 94 to 96 °C |
